Columns and labels:
Assay in all cases: relative viability (nuclei count vs DMSO), 5 days (fraction); higher = more cells survive
[1] = compound: CCN(CCO)CCCC(C)Nc1ccnc2cc(Cl)ccc12 [Hydroxychloroquine] + CS(=O)(=O)N1CCN(Cc2cc3nc(-c4cccc5[nH]ncc45)nc(N4CCOCC4)c3s2)CC1 [Pictilisib] (partner 1 µM)
How it was run: (§1)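 A single step with final 0.05% Triton X-100, 1% formaldehyde and 1 ug/ml Hoechst fixed the cells and stained nuclei 5 days after treatment. Lung cancer cell lines in 1536-well plates had been treated by pin tool the day after seeding with one drug alone or a fixed anchor-drug dose plus five library-drug doses (not always all listed) in √10 steps, and nuclei were counted on 4× images. Relative viability is the ratio of nuclei in treated wells to nuclei in vehicle wells, taken as the median of duplicate plates.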

[2] = compound: CCN(CCO)CCCC(C)Nc1ccnc2cc(Cl)ccc12 [Hydroxychloroquine] + CCNC(=O)c1noc(-c2cc(C(C)C)c(O)cc2O)c1-c1ccc(CN2CCOCC2)cc1 [Luminespib] (partner 0.01 µM)
How it was run: as §1

[3] = compound: CCN(CCO)CCCC(C)Nc1ccnc2cc(Cl)ccc12 [Hydroxychloroquine] + CC(=O)c1c(C)c2cnc(Nc3ccc(N4CCNCC4)cn3)nc2n(C2CCCC2)c1=O [Palbociclib] (partner 0.5 µM)
How it was run: as §1

[4] = compound: CCN(CCO)CCCC(C)Nc1ccnc2cc(Cl)ccc12 [Hydroxychloroquine] + COc1cccc2cc(-c3nc([C@H]4CC[C@H](C(=O)O)CC4)n4ncnc(N)c34)[nH]c12 [OSI-027] (partner 0.5 µM)
How it was run: as §1

Cell Line	relative viability ([1]; first compound 0.5 µM)	relative viability ([1]; first compound 1.581 µM)	relative viability ([1]; first compound 5 µM)	relative viability ([1]; first compound 15.81 µM)	relative viability ([1]; first compound 50 µM)	relative viability ([2]; first compound 0.5 µM)	relative viability ([2]; first compound 1.581 µM)	relative viability ([2]; first compound 5 µM)	relative viability ([2]; first compound 15.81 µM)	relative viability ([2]; first compound 50 µM)	relative viability ([3]; first compound 0.5 µM)	relative viability ([3]; first compound 1.581 µM)	relative viability ([3]; first compound 5 µM)	relative viability ([3]; first compound 15.81 µM)	relative viability ([3]; first compound 50 µM)	relative viability ([4]; first compound 0.5 µM)	relative viability ([4]; first compound 1.581 µM)	relative viability ([4]; first compound 5 µM)	relative viability ([4]; first compound 15.81 µM)	relative viability ([4]; first compound 50 µM)
NCI-H441	0.488	0.532	0.535	0.38	0.428	0.361	0.334	0.328	0.417	0.329	0.217	0.187	0.185	0.192	0.204	0.749	0.443	0.579	0.669	0.584
NCI-H1792	0.286	0.256	0.254	0.26	0.249	0.434	0.503	0.472	0.698	0.442	0.696	0.683	0.584	0.657	0.68	0.797	0.729	0.715	1.04	0.825
NCI-H1993	0.824	0.961	0.625	0.81	0.789	0.943	0.789	0.846	0.864	0.928	0.6	0.575	0.692	0.662	0.693	0.546	0.563	0.558	0.555	0.541
NCI-H647	0.514	0.323	0.335	0.357	0.476	0.204	0.141	0.132	0.234	0.142	0.418	0.439	0.41	0.282	0.366	0.703	0.737	0.683	0.893	0.607
